Laboratory results from publication PMC8637440, “Structural Modifications Yield Novel Insights Into the Intriguing Pharmacodynamic Potential of Anti-inflammatory Nitro-Fatty Acids” (Frontiers in Pharmacology, 2021).
“And” between values parts separate entries of the source, which are not always exact repeats. Identical values can stand only once.

Experiments:
12-LO = biological target: T1, 12-LO (Homo sapiens, UniProt P18054); test: 12-HETE formation in intact PMNL preparations, A23187 + 20 µM AA; format: cell-based; settings: 15 min preincubation, A23187 2.5 µM + 20 µM AA, n.i. = no inhibition observed
T1 construct: endogenous in cells; host or cells: platelet impurities in human PMNL preparations
T1 sequence (P18054 1-663): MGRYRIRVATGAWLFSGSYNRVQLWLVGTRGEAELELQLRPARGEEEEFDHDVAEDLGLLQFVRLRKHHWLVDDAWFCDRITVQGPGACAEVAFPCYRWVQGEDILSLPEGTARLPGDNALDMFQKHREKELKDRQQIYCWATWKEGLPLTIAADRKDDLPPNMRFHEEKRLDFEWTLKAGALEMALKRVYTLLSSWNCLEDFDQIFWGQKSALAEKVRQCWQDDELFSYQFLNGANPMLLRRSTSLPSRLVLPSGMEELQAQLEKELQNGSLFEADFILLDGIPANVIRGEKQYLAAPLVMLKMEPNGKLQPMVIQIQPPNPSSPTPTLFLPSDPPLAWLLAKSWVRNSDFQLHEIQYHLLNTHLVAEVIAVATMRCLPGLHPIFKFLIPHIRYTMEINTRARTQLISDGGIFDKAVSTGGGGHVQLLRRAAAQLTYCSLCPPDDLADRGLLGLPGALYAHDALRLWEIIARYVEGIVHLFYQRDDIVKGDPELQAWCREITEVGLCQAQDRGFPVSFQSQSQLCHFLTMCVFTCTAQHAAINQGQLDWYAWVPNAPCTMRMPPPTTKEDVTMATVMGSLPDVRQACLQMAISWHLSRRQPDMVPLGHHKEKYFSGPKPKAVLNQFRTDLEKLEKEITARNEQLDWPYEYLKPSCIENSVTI
Experimental: (§1) Buffy coats from different donors of different blood types were commercially obtained from DRK Blutspendedienst Baden-Württemberg Institute Frankfurt. Donors have given their written consent. […] Following separation, the supernatant was transferred very gently to new 50-ml tubes containing lymphocyte separation medium (LSM) and centrifuged for 10 min at 800 ×g at RT with the centrifuge brake turned off. Afterwards, the supernatant was decanted carefully to discard the platelets and monocytes. The PMNL were washed with 1× PBS before the residual erythrocytes were lysed in two cycles: the cell pellet was resuspended with 10 ml H2O and vortexed for 45 s, and lysis was stopped with 40 ml 1 × PBS. After 10-min centrifugation at 200 ×g at RT, the cycle was repeated once. The supernatant was aspirated, the cell pellet resuspended in 5 ml PBS/glucose and initially separated PMNL preparations with different blood types were finally pooled to gain a sufficient number of cells. […] The enzyme was diluted in PBS/EDTA/ATP, transferred into 5-ml glass tubes, and stored on ice. […] The reaction was stopped by placing the glass tubes on ice. The supernatants were transferred to 1.5 ml reaction tubes and stored at −80°C before LC-MS (liquid chromatography and mass spectrometry) analysis of LTB4 and HETEs as described in 2.6 at the Institute of Pharmacology, Goethe University, University Hospital, Germany. The lipid mediators LTB4, hydroxyeicosatetraenoic acids, 5(S)-HETE, 12(S)-HETE, 15(S)-HETE and 20-HETE were analyzed using liquid chromatography tandem-mass spectroscopy (LC-MS/MS). The LC-MS/MS system consisted of a 5500 QTrap mass spectrometer (Sciex, Darmstadt, Germany), operating in negative ESI mode, an Agilent 1200 HPLC system (Agilent, Waldbronn, Germany) and an HTC Pal autosampler (Chromtech, Idstein, Germany). Sample extraction of LTB4 and HETEs were performed using liquid-liquid extraction: 200 µl of the sample were gently mixed with 20 µl of methanol and 20 µl of internal standard solution and extracted twice with 600 µl ethyl acetate. […] Working solutions of all analytes were prepared in methanol containing 0.1% BHT. The calibration standards were prepared by further dilution of the working standards. […] The residues were reconstituted in 50 µl of methanol:water:BHT (50:50:10^−4, v/v/v) prior to injection into the LC-MS/MS system. Chromatographic separation was achieved using a Gemini NX C18 column (150 mm × 2 mm ID, 5 µm, Phenomenex, Aschaffenburg, Germany) with a precolumn of the same material. A linear gradient was employed at a flow rate of 0.5 ml/min and a total run time of 17.5 min. Mobile phases were A water:ammonia (100:0.05, v/v) and B acetonitrile:ammonia (100:0.05, v/v). […] All data were acquired using Analyst software v1.6.2 and quantitation was performed by MultiQuant software v3.0 (both Sciex, Darmstadt, Germany) using the internal standard method (isotope-dilution mass spectrometry). Calibration curves were calculated by linear regression with 1/x.

15-LO = biological target: T2, 15-LO (Homo sapiens, UniProt P16050); test: 15-HETE formation in intact PMNL preparations, A23187 + 20 µM AA; format: cell-based; settings: 15 min preincubation, A23187 2.5 µM + 20 µM AA, n.i. = no inhibition observed; for PMNL (20 µM AA) 15-HETE IC50: intact PMNL; for IC50: PMNL (20 µM AA) 15-HETE IC50, intact PMNL
T2 construct: endogenous in cells; host or cells: eosinophils in human PMNL preparations
T2 sequence (P16050 1-662): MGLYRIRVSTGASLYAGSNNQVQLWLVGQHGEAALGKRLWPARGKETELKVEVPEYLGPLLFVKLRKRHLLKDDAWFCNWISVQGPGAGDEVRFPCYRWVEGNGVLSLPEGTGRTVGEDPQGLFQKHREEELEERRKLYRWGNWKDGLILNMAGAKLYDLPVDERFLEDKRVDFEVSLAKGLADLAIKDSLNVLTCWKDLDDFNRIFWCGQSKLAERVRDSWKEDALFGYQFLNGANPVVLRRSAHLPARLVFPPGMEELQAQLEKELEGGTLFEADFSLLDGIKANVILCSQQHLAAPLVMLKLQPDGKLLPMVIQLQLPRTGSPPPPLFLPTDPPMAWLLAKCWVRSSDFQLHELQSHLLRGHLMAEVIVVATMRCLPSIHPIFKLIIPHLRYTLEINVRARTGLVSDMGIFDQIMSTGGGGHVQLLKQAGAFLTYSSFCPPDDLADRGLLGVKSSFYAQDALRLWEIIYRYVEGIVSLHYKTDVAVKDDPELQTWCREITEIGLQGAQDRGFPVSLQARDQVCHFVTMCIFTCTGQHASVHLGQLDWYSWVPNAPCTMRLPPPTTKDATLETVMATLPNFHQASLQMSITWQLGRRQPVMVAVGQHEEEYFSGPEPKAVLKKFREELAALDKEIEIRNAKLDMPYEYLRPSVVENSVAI
Experimental: as §1

PMNL (20 µM AA) 12-HETE IC50 (12-LO) | PMNL (20 µM AA) 15-HETE IC50 (15-LO) | IC50 (15-LO) | SMILES
n.i. | n.i. |  | CCC=C(CCCCCCCC(=O)O)[N+](=O)[O-] [12.9.9, 9-nitro-dodec-9-enoic acid]
n.i. | n.i. |  | CCCCC=C(CCCCCCCC(=O)O)[N+](=O)[O-] [14.9.9, 9-nitro-tetradec-9-enoic acid]
n.i. | n.i. |  | CCCCCCC=C(CCCCCCCC(=O)O)[N+](=O)[O-] [16.9.9, 9-nitro-hexadec-9-enoic acid]
n.i. |  | 7.7 ± 1.2 µM | CCCCCCCCCCCCCC=C(CCC(=O)O)[N+](=O)[O-] [18.4.4, 4-nitro-octadec-4-enoic acid]
n.i. |  | 8.9 ± 1.2 µM | CCCCCCCCCCCCC=C(CCCC(=O)O)[N+](=O)[O-] [18.5.5, 5-nitro-octadec-5-enoic acid]
n.i. |  | 14.8 ± 1.1 µM | CCCCCCCCCCCC=C(CCCCC(=O)O)[N+](=O)[O-] [18.6.6, 6-nitro-octadec-6-enoic acid]
n.i. |  | 17.3 ± 1.1 µM | CCCCCCCCCCCC(=CCCCCC(=O)O)[N+](=O)[O-] [18.6.7, 7-nitro-octadec-6-enoic acid]
n.i. |  | 7.6 ± 1.1 µM | CCCCCCCCCCC=C(CCCCCC(=O)O)[N+](=O)[O-] [18.7.7, 7-nitro-octadec-7-enoic acid]
n.i. |  | 16 ± 1.1 µM | CCCCCCCCCC=C(CCCCCCC(=O)O)[N+](=O)[O-] [18.8.8, 8-nitro-octadec-8-enoic acid]
n.i. |  | 23.4 ± 1.3 µM | CCCCCCCCCC(=CCCCCCCC(=O)O)[N+](=O)[O-] [18.8.9, 9-nitro-octadec-8-enoic acid]
n.i. |  | 20.5 ± 1.3 µM | CCCCCCCCC(=CCCCCCCCC(=O)O)[N+](=O)[O-] [18.9.10, 10-nitro-octadec-9-enoic acid]
n.i. |  | 19.6 ± 1.1 µM | CCCCCCCC=C(CCCCCCCCC(=O)O)[N+](=O)[O-] [18.10.10, 10-nitro-octadec-10-enoic acid]
n.i. |  | 26 ± 1.3 µM | CCCCCCC=C(CCCCCCCCCC(=O)O)[N+](=O)[O-] [18.11.11, 11-nitro-octadec-11-enoic acid]
n.i. |  | 21.2 ± 1.1 µM | CCCCCCCCCCC=C(CCCCCCCC(=O)O)[N+](=O)[O-] [20.9.9, 9-nitro-eicos-9-enoic acid]

SMILES | PMNL (20 µM AA) 12-HETE IC50 (12-LO) | PMNL (20 µM AA) 15-HETE IC50 (15-LO) | IC50 (15-LO)
CCCCCCCCC=C(CCCCCCCC(=O)O)[N+](=O)[O-] [18.9.9, 9-nitro-octadec-9-enoic acid] | n.i. |  | 17.6 µM and 20.4 µM
CCCCCCCC/C=C\CCCCCCCC(=O)O [OA, oleic acid, reference compound] | not affected and n.i. | not affected and n.i. | 
